Data published in patent US20260138959A1, “QUINAZOLINE DERIVATIVE COMPOUND AND USE THEREOF” (VORONOI INC., priority 2021, published 2026).

What follows are molecules tested on c-KIT V560G/D816V (assay: Proliferation inhibitory activity on Ba/F3 cell (CellTiter-Glo, 72 hours), c-KIT V560G/D816V). Conditions: Mus musculus, BaF3, c-KIT V560G/D816V cells, read-out: Cell (nM) c-KIT V560G/D816V (GI50 class).
Assay type: cell-based
Procedure: (§1) Ba/F3-TEL-PDGFRα(WT), Ba/F3-TEL-PDGFβ(WT), Ba/F3-c-KIT(D816V) (Kyinno, #KC-0138), c-KIT V560G/D816V, c-KIT D814Y were seeded at 3×10^3/100 μl/well in a clear bottom white 96-well plate. A culture solution containing compounds of 12 concentrations (0.00001-2 mM) serially diluted in 3 folds and the DMSO control group was added at 0.5 μl/well each to a final concentration of 0.00005-10 μM, and then incubated in a CO2 incubator at 37° C. for 72 hours. After 72 hours, the plate treated with the compound was taken out, CellTiter-Glo® Assay (Promega) solution was treated with 100 μl/well, followed by mixing well. After mixing well for about 10 minutes at room temperature, […] was measured using a microplate reader. The data were presented as percentages in proportion to treated cells based on the vehicle, GI50 (nM) values were calculated using GraphPad Prism 8.3.0 (GraphPad software Inc., San Diego).
(§2) The inhibitory activities of Ba/F3 expressing PDGFR-α, PDGFR-β, c-KIT(D816V), c-KIT V560G/D816V, and c-KIT D814Y measured as described above were measured and shown in Table 7 below (A: GI50≤200 nM; B: 200 nM<GI50≤500 nM; C: GI50>500 nM).

Row | Compound | GI50 [nM]
1 | COc1cc2c(-c3ccc(NC(=O)Cn4cc(C(C)(C)C)nn4)cc3)ncnc2cc1OCC1CCN(C(C)=O)CC1 [Example 108, N-(4-(7-((1-acetylpiperidin-4-yl)methoxy)-6-methoxyquinazolin-4-yl)phenyl)-2-(4-(tert-butyl)-1H-1,2,3-triazole-1-yl)acetamide] | > 500
2 | CCN1CCCC(COc2cc3ncnc(-c4ccc(NC(=O)Cn5cc(C(C)(C)C)nn5)cc4)c3cc2OC)C1 (stereo not drawn) [Example 112, 2-(4-(tert-butyl)-1H-1,2,3-triazole-1-yl)-N-(4-(7-((1-ethylpiperidin-3-yl)methoxy)-6-methoxyquinazolin-4-yl)phenyl)acetamide] | > 500
3 | COc1cc2c(-c3ccc(NC(=O)Cn4cc(C(C)(C)C)nn4)cc3)ncnc2cc1OCC1CCN(C(C)C)CC1 [Example 119, 2-(4-(tert-butyl)-1H-1,2,3-triazole-1-yl)-N-(4-(7-((1-isopropylpiperidin-4-yl)methoxy)-6-methoxyquinazolin-4-yl)phenyl)acetamide] | > 500
4 | COc1cc2c(-c3ccc(NC(=O)Cc4ccc(C(F)(F)F)cc4)cc3)ncnc2cc1OCC1CCNCC1 [Example 17, N-(4-(6-methoxy-7-(piperidin-4-ylmethoxy)quinazolin-4-yl)phenyl)-2-(4-(trifluoromethyl)phenyl)acetamide] | ≤ 200
5 | COc1cc2c(-c3ccc(NC(=O)Cc4ccc(C(F)(F)F)cc4)cc3)ncnc2cc1OCC1CCN(C(C)=O)CC1 [Example 102, N-(4-(7-((1-acetylpiperidin-4-yl)methoxy)-6-methoxyquinazolin-4-yl)phenyl)-2-(4-(trifluoromethyl)phenyl)acetamide] | ≤ 200
6 | COc1ccc(CC(=O)Nc2ccc(-c3ncnc4cc(OCC5CCN(C(C)=O)CC5)c(OC)cc34)cc2)cn1 [Example 103, N-(4-(7-((1-acetylpiperidin-4-yl)methoxy)-6-methoxyquinazolin-4-yl)phenyl)-2-(6-methoxypyridin-3-yl)acetamide] | 200 to 500
7 | COc1cc2c(-c3ccc(NC(=O)C(C)(C)c4ccc(F)cc4)cc3)ncnc2cc1OCC1CCNCC1 [Example 88, 2-(4-fluorophenyl)-N-(4-(6-methoxy-7-(piperidin-4-ylmethoxy)quinazolin-4-yl)phenyl)-2-methylpropanamide] | 200 to 500
8 | COc1cc2c(-c3ccc(NC(=O)Cn4cc(C(C)C)nn4)cc3)ncnc2cc1OCC1CCN(C(C)C)CC1 [Example 120, 2-(4-isopropyl-1H-1,2,3-triazole-1-yl)-N-(4-(7-((1-isopropylpiperidin-4-yl)methoxy)-6-methoxyquinazolin-4-yl)phenyl)acetamide] | > 500
9 | CCN1CCC(COc2cc3ncnc(-c4ccc(NC(=O)C5(c6ccc(F)cc6)CC5)cc4)c3cc2OC)CC1 [Example 93, N-(4-(7-((1-ethylpiperidin-4-yl)methoxy)-6-methoxyquinazolin-4-yl)phenyl)-1-(4-fluorophenyl)cyclopropane-1-carboxamide] | 200 to 500
10 | COCCN1CCC(COc2cc3ncnc(-c4ccc(NC(=O)C5(c6ccc(F)cc6)CC5)cc4)c3cc2OC)CC1 [Example 92, 1-(4-fluorophenyl)-N-(4-(6-methoxy-7-((1-(2-methoxyethyl)piperidin-4-yl)methoxy)quinazolin-4-yl)phenyl)cyclopropane-1-carboxamide] | 200 to 500
11 | COc1cc2c(-c3ccc(NC(=O)C4(c5ccc(F)cc5)CC4)cc3)ncnc2cc1OCC1CCNCC1 [Example 91, 1-(4-fluorophenyl)-N-(4-(6-methoxy-7-(piperidin-4-ylmethoxy)quinazolin-4-yl)phenyl)cyclopropane-1-carboxamide] | 200 to 500
12 | COc1cc2c(-c3ccc(NC(=O)Cn4cc(C(C)(C)C)nn4)cc3)ncnc2cc1OCC1CCN(C)CC1 [Example 106, 2-(4-(tert-butyl)-1H-1,2,3-triazole-1-yl)-N-(4-(6-methoxy-7-((1-methylpiperidin-4-yl)methoxy)quinazolin-4-yl)phenyl)acetamide] | > 500
13 | COc1cc2c(-c3ccc(NC(=O)Cn4cc(C(C)C)nn4)cc3)ncnc2cc1OCC1CCN(C)CC1 [Example 105, 2-(4-isopropyl-1H-1,2,3-triazole-1-yl)-N-(4-(6-methoxy-7-((1-methylpiperidin-4-yl)methoxy)quinazolin-4-yl)phenyl)acetamide] | > 500
14 | COc1cc2c(-c3ccc(NC(=O)Cc4ccc(C(F)(F)F)nc4)cc3)ncnc2cc1OCC1CCN(C(C)=O)CC1 [Example 104, N-(4-(7-((1-acetylpiperidin-4-yl)methoxy)-6-methoxyquinazolin-4-yl)phenyl)-2-(6-(trifluoromethyl)pyridin-3-yl)acetamide] | 200 to 500
15 | COCCN1CCC(COc2cc3ncnc(-c4ccc(NC(=O)CCCc5ccccc5)cc4)c3cc2OC)CC1 [Example 114, N-(4-(6-methoxy-7-((1-(2-methoxyethyl)piperidin-4-yl)methoxy)quinazolin-4-yl)phenyl)-4-phenylbutanamide] | 200 to 500
16 | COc1cc2c(-c3ccc(NC(=O)Cn4cc(C(C)C)nn4)cc3)ncnc2cc1OCC1CCN(C(C)=O)CC1 [Example 107, N-(4-(7-((1-acetylpiperidin-4-yl)methoxy)-6-methoxyquinazolin-4-yl)phenyl)-2-(4-isopropyl-1H-1,2,3-triazole-1-yl)acetamide] | > 500
17 | COCCN1CCC(COc2cc3ncnc(-c4ccc(NC(=O)Cn5cc(C(C)C)nn5)cc4)c3cc2OC)CC1 [Example 94, 2-(4-isopropyl-1H-1,2,3-triazole-1-yl)-N-(4-(6-methoxy-7-((1-(2-methoxyethyl)piperidin-4-yl)methoxy)quinazolin-4-yl)phenyl)acetamide] | > 500
18 | COCCOc1cc2ncnc(-c3ccc(NC(=O)Cc4ccc(C(F)(F)F)cc4)cc3)c2cc1OC [Example 117, N-(4-(6-methoxy-7-(2-methoxyethoxy)quinazolin-4-yl)phenyl)-2-(4-(trifluoromethyl)phenyl)acetamide] | ≤ 200
19 | COCCN1CCC(COc2cc3ncnc(-c4ccc(NC(=O)Cn5cc(C(C)(C)C)nn5)cc4)c3cc2OC)CC1 [Example 95, 2-(4-(tert-butyl)-1H-1,2,3-triazole-1-yl)-N-(4-(6-methoxy-7-((1-(2-methoxyethyl)piperidin-4-yl)methoxy)quinazolin-4-yl)phenyl)acetamide] | > 500
20 | CCN1CCCC(COc2cc3ncnc(-c4ccc(NC(=O)Cn5cc(C(C)C)nn5)cc4)c3cc2OC)C1 (stereo not drawn) [Example 111, N-(4-(7-((1-ethylpiperidin-3-yl)methoxy)-6-methoxyquinazolin-4-yl)phenyl)-2-(4-isopropyl-1H-1,2,3-triazole-1-yl)acetamide] | > 500
21 | COc1cc2c(-c3ccc(NC(=O)Cc4ccc(C(F)(F)F)cc4)cc3)ncnc2cc1OCC1CCN(C(=O)OC(C)(C)C)CC1 [Example 15, tert-butyl 4-(((6-methoxy-4-(4-(2-(4-(trifluoromethyl)phenyl)acetamido)phenyl)quinazolin-7-yl)oxy)methyl)piperidin-1-carboxylate] | > 500

What follows are molecules tested on Ba/F3-c-KIT(D816V) (assay: Proliferation inhibitory activity on Ba/F3 cell (CellTiter-Glo, 72 hours), c-KIT(D816V)). Conditions: Mus musculus, BaF3, read-out: Ba/F3 (nM) c-KIT (D816V) (GI50 class).
Assay type: cell-based
Procedure: as §1, §2

Row | Compound | GI50 [nM]
22 | COc1cc2c(-c3ccc(NC(=O)Cc4ccc(C(F)(F)F)cc4)cc3)ncnc2cc1OCC1CCCNC1 (stereo not drawn) [Example 16, N-(4-(6-methoxy-7-(piperidin-3-ylmethoxy)quinazolin-4-yl)phenyl)-2-(4-(trifluoromethyl)phenyl)acetamide] | ≤ 200
23 | COc1cc2c(-c3ccc(NC(=O)Cc4ccc(C(F)(F)F)cc4)cc3)ncnc2cc1OCC1CCCN(C(=O)OC(C)(C)C)C1 (stereo not drawn) [Example 14, tert-butyl 3-(((6-methoxy-4-(4-(2-(4-(trifluoromethyl)phenyl)acetamido)phenyl)quinazolin-7-yl)oxy)methyl)piperidin-1-carboxylate] | > 500
24 | COc1cc2c(-c3ccc(NC(=O)Cc4ccc(C(F)(F)F)c(F)c4)cc3)ncnc2cc1OCC1CCNCC1 [Example 79, 2-(3-fluoro-4-(trifluoromethyl)phenyl)-N-(4-(6-methoxy-7-(piperidin-4-ylmethoxy)quinazolin-4-yl)phenyl)acetamide] | ≤ 200
25 | COc1cc2ncnc(-c3ccc(NC(=O)Cc4ccc(C(F)(F)F)cc4)cc3)c2cc1OCCCNc1cnn(C)c1 [Example 155, N-(4-(7-methoxy-6-(3-((1-methyl-1H-pyrazol-4-yl)amino)propoxy)quinazolin-4-yl)phenyl)-2-(4-(trifluoromethyl)phenyl)acetamide] | ≤ 200
26 | COc1cc2c(-c3ccc(NC(=O)Cn4cc(C(C)C)nn4)cc3)ncnc2cc1OCC1CCNCC1 [Example 61, 2-(4-isopropyl-1H-1,2,3-triazole-1-yl)-N-(4-(6-methoxy-7-(piperidin-4-ylmethoxy)quinazolin-4-yl)phenyl)acetamide] | > 500
27 | CCN1CC2(C1)CN(CCCOc1cc3ncnc(-c4ccc(NC(=O)Cc5ccc(C(F)(F)F)cc5)cc4)c3cc1OC)C2 [Example 21, N-(4-(7-(3-(6-ethyl-2,6-diazaspiro[3.3]heptane-2-yl)propoxy)-6-methoxyquinazolin-4-yl)phenyl)-2-(4-(trifluoromethyl)phenyl)acetamide] | ≤ 200
